Experimental data taken from patent US20260374814A1, “Synthetic Peptide And Construct” (TOAGOSEI CO., LTD, priority 2022, published 2026).
FAM = 5(6)-carboxyfluorescein

What follows are substances tested on NSC-34 cells (assay: Evaluation of Cell Membrane Permeability by Flow Cytometry (transfer of FAM construct into NSC-34 cells)). Settings: NSC-34 cells (mouse motor neuron-like hybrid cell line); 20 μM in culture medium; 20 hours at 37 °C, 5% CO2; flow cytometer, detector FL2.
Type: cell-based
Protocol: As the eukaryotic cells, NSC-34 cells (mouse motor neuron-like hybrid cell line) were used and the cell membrane permeability of the peptides 1 to 3 was analyzed. As a culture medium of the NSC-34 cell, 10% fetal bovine serum (FBS)-containing Dulbecco's modified Eagle's medium (DMEM (Cat No. 044-29765, manufactured by FUJIFILM Wako Pure Chemical Corporation)) was used. The samples 1 to 3 were each dissolved in dimethyl sulfoxide (DMSO) to prepare sample solutions 1 to 3 with a sample concentration of 4 mM. Then, the sample solutions were diluted in the culture medium to prepare 40 μM sample solutions 1 to 3. The aforementioned prepared sample solutions 1 to 3 were used in Examples 1 to 3, and the FAM solution was used in Reference Example 1.
The NSC-34 cell was suspended in the culture medium to prepare a cell suspension of 2×10^5 cells/mL. The cell suspension was added by 1 mL to a well of a commercially available six-hole (well) plate (manufactured by AGC TECHNO GLASS Co., Ltd.) so as to seed the NSC-34 cell to be 2×10^5 cells/well. Next, 1 mL of the 40 μM sample solution 1 was added to the well so that the sample concentration in the culture medium in the well became 20 μM. After that, the six-well plate was left at rest in a cell culture apparatus, and incubated for 20 hours at 37 °C under a 5% CO2 condition.
After the 20-hour incubation, the culture supernatant was removed from the well and the cells in the well were cleaned twice with 1 mL of PBS. Next, 100 μL of the 0.25% trypsin/EDTA solution was added to the well and the incubation was performed for three minutes at 37 °C. After the incubation, 900 μL of the culture medium was added to the well to deactivate the trypsin. Subsequently, the cell suspension in the well was transferred to a tube and the cells were collected. This tube was subjected to five-minute centrifugal separation at 4 °C under a condition of 210×g. […]
Regarding the obtained cells (cell pellet), the cell membrane permeability of the sample 1 was analyzed using a flow cytometer. […]
Using the aforementioned flow cytometer, gating based on forward scatter (FSC) and side scatter (SSC) was performed to set a gate about a cell group to be analyzed, and the fluorescence intensity was measured about the cell group in this gate. […] The fluorescence intensity was measured using a fluorescence detector FL2 of the flow cytometer (optimum detection wavelength around 543 nm) capable of detecting the fluorescence wavelength of FAM. Regarding this measurement result, the analysis was performed using commercially available analysis software “FlowJo” (manufactured by TreeStar) to obtain mean fluorescence intensity (MFI) of the cell group to be measured. […]
In the case of “5(6)-carboxyfluorescein [Reference Example 1, reference compound]”, the “MFI (mean fluorescence intensity)” value is reported as 10.9. For Ac-SASAG-FAM [Example 1], the “MFI (mean fluorescence intensity)” value was 20.9. “Ac-SASASAG-FAM (Ac-SASASAG-{FAM}) [Example 2, construct: peptide 2 (SASASAG), N-terminus acetylated, with FAM bonded to the C-terminus amino acid residue]” was tested, and the “MFI (mean fluorescence intensity)” value was 19.2. In the case of “Ac-SASASASAG-FAM (Ac-SASASASAG-{FAM}) [Example 3, construct: peptide 3 (…), N-terminus acetylated, with FAM bonded to the C-terminus amino acid residue]”, the “MFI (mean fluorescence intensity)” value is reported as 22.8.
